Source: patent US20060093575A1, “Oxaliplatin anti-resistance agent” (CENTRE NATIONAL DE LA RECHERCHE SCIENTIFIQUE, priority 2002, published 2006)
Like-named read-outs stand apart in the source and are kept apart here.

Columns and labels:
HCT116 = assay: colorimetric cell growth test, medication incubated 48 hours; conditions: for relative resistance (IC50 resistant clone / IC50 parental clone): HCT116 (parental clone); for IC50: read-out: IC50 (concentration that reduces cell growth by 50%)
HCT116/R = assay: as above; conditions: for relative resistance (IC50 resistant clone / IC50 parental clone): HCT116/R versus HCT116; for crossed resistance: HCT116R versus HCT116; for IC50: read-out: IC50 (concentration that reduces cell growth by 50%)
SW620 = assay: as above; conditions: for relative resistance (IC50 resistant clone / IC50 parental clone): SW620 (parental clone); for IC50: read-out: IC50 (concentration that reduces cell growth by 50%)
SW620/R = assay: as above; conditions: for relative resistance (IC50 resistant clone / IC50 parental clone): SW620/R versus SW620; for crossed resistance: SW620R versus SW620; for IC50: read-out: IC50 (concentration that reduces cell growth by 50%)
HCT116/R1 = assay: oxaliplatin resistance of variant line versus HCT116/S; format: cell-based; conditions: HCT116/R1 clone
Excerpt: the line HCT116/R1 derived from the line HCT116 after acquisition of oxaliplatin resistance and cloning (corresponding to a clone 30 times more resistant than the sensitive reference line HCT116/S),

HCT116/Rev1 = assay: oxaliplatin sensitivity of variant line versus HCT116/S; format: cell-based; conditions: HCT116/Rev1, after culture without oxaliplatin for 6 months
Excerpt: the variant HCT116/Rev1 derived from the line HCT116/R1 after culture in the absence of oxaliplatin for 6 months.

HCT116/Rev2 = assay: oxaliplatin resistance of variant line versus HCT116/S; format: cell-based; conditions: HCT116/Rev2, after culture without oxaliplatin for 15 months
Excerpt: the variant HCT116/Rev2 derived from the line HCT116/R2 after culture in the absence of oxaliplatin for 15 months. This variant is characterized by an only partial loss of oxaliplatin resistance (variant HCT116/Rev2 is 16 times more resistant than line HCT116/S).

HCT116R [1] = conditions: treated 48 hours
Protocol: A control is performed without contact with any medication (Co).

SW620R [2] = assay: degree of apoptosis by cytofluorometry, annexine V labeling; format: cell-based; conditions: treated 48 hours
Protocol: (§1) A control is performed without contact with any medication (Co). The degree of apoptosis is then determined by cytofluorometry using labeling by annexine V. Independently, activation of the apoptosis effector protein Caspase 3 was evaluated in cells HCT116 and HCT116R after treatment for 24 hours with oxaliplatin in order to validate the entry into apoptosis of the cells as observed by cytofluorometry (FIG. 2C).

[3] = test system: Caspase 3 in HCT116R cells; assay: activation of apoptosis effector protein Caspase 3; format: cell-based; conditions: treated 24 hours
Protocol: as §1

[4] = test system: Bax protein in HCT116 cells; assay: detection of Bax by Western blot; format: cell-based; conditions: HCT116, 15 μM for 48 hours (or 50 μM for 24 hours)
Protocol: (§2) Legend to FIG. 1: detection of Bax by Western blot in the absence of, or under the effect of treatment, with oxaliplatin in the HCT116 model. The cells are not treated or treated with oxaliplatin at a level of 15 μM for 48 hours (or 50 μM for 24 hours) before preparation of cell lysates. Tubulin expression is used as a control of equivalent protein deposits.

[5] = test system: Bax protein in HCT116R cells; assay: detection of Bax by Western blot; format: cell-based; conditions: 15 μM for 48 hours (or 50 μM for 24 hours)
Protocol: as §2

Bax in HCT116/R1 cells [6] = assay: Bax activation, active-conformation antibody, flow cytometry; format: cell-based; conditions: HCT116/R1, 12, 24 or 48 hours with 15 μM, compared to HCT116/S
Protocol: (§3) Legend to FIGS. 4A to 4C: Detection of activation of Bax by an antibody specific for the active conformation of Bax and intracellular analysis by flow cytometry. The cells are fixed, permeabilized and then incubated with the antibody specific for the active conformation of […]. Finally visualization is carried out by incubation with the secondary antibody coupled with FITC. The labeling of untreated cells is shown by the curve in fine black line. That of treated cells (12, 24 or 48 hours with 15 μM oxaliplatin) is shown by the curves in thick black line. The appearance of strongly labeled cells (curves in thick black line shifted to the right) gives evidence of activation of Bax.

Bax in HCT116/Rev1 cells [7] = assay: as above; format: cell-based; conditions: HCT116/Rev1, 12, 24 or 48 hours with 15 μM
Protocol: as §3

Bak in HCT116/R1 cells = assay: Bak activation, active-conformation antibody, flow cytometry; format: cell-based; conditions: HCT116/R1, 12, 24 or 48 hours with 15 μM
Protocol: (§4) Legend to FIGS. 5A to 5E: Detection of activation of Bak by an antibody specific for the active conformation of Bak and intracellular analysis by flow cytometry. The cells are fixed, made permeable and then incubated with the antibody specific for the active conformation of […]. Finally visualization is carried out by incubation with the secondary antibody coupled to FITC. Labeling of untreated cells is shown by the curve in the fine black line. That of treated cells (12, 24 or 48 hours with 15 μM oxaliplatin) is shown by the curves in the thick black line. The appearance of strongly labeled cells (curves in the thick black line shifted to the right) gives evidence of activation of Bak. This experiment was reproduced two times.

Bak in HCT116/R2 cells = assay: as above; format: cell-based; conditions: HCT116/R2, 12, 24 or 48 hours with 15 μM
Protocol: as §4

Bak in HCT116/Rev1 cells = assay: as above; format: cell-based; conditions: HCT116/Rev1, 12, 24 or 48 hours with 15 μM
Protocol: as §4

Bak in HCT116/Rev2 cells = assay: as above; format: cell-based; conditions: HCT116/Rev2, 12, 24 or 48 hours with 15 μM
Protocol: as §4

Bax in HCT116/R1 cells [8] = assay: overall level of Bax expression on exposure to oxaliplatin; format: cell-based
Excerpt: (§5) The overall level of Bax expression is equivalent for the lines HCT116/S, HCT116/R1 and HCT116/Rev1.

Bax in HCT116/Rev1 cells [9] = assay: as above; format: cell-based
Excerpt: as §5

Bax in HCT116/S cells = assay: as above; format: cell-based
Excerpt: as §5

HCT116R [10] = assay: degree of apoptosis by cytofluorometry, Mitocapture dye; format: cell-based; conditions: treated 24 hours
Protocol: (§6) Legend to FIGS. 3A and 3B: cells HCT116 (and R) and SW620 (and R) are treated, prior to determination of the degree of apoptosis, for 24 hours by arsenic trioxide (As), lonidamine (LND) or are left without treatment (control, Co). The degree of apoptosis is then determined by cytofluorometry after labeling with the dye “Mitocapture” which fluoresces differently in apoptotic cells and intact cells (with relation to mitochondrial integrity).

SW620R [11] = assay: as above; format: cell-based; conditions: treated 24 hours
Protocol: as §6

[12] = HCT116, 48 hours, average ± SD, at least three experiments
[13] = HCT116/R, 48 hours, average ± SD, at least three experiments
[14] = SW620, 48 hours, average ± SD, at least three experiments
[15] = SW620/R, 48 hours, average ± SD, at least three experiments

N.N.[Cl][Pt][Cl] [Cisplatin]
relative resistance (IC50 resistant clone / IC50 parental clone) (HCT116): (1.0) | IC50 (HCT116; [12]): 4.7 ± 1.8 µM | relative resistance (IC50 resistant clone / IC50 parental clone) (HCT116/R): (2.9) | crossed resistance (HCT116/R): very little or no crossed resistance | IC50 (HCT116/R; [13]): 13.4 ± 6.6 µM | relative resistance (IC50 resistant clone / IC50 parental clone) (SW620): (1.0) | IC50 (SW620; [14]): 7 ± 1.7 µM | relative resistance (IC50 resistant clone / IC50 parental clone) (SW620/R): (1.4) | crossed resistance (SW620/R): very little or no crossed resistance | IC50 (SW620/R; [15]): 9 ± 1.7 µM

CCc1c2c(nc3ccc(OC(=O)N4CCC(N5CCCCC5)CC4)cc13)-c1cc3c(c(=O)n1C2)COC(=O)[C@]3(O)CC [Irinotecan]
IC50 (HCT116; Homo sapiens, HCT-116, 48 h): 7.7 ± 3.8 µM | crossed resistance (HCT116/R): very little or no crossed resistance | IC50 (HCT116/R; Homo sapiens, HCT-116, 48 h): 9.5 ± 4.2 µM | IC50 (SW620; Homo sapiens, SW-620, 48 h): 23.3 ± 0.6 µM | IC50 (SW620/R; Homo sapiens, SW-620, 48 h): 11.7 ± 2.5 µM | crossed resistance (SW620/R): very little or no crossed resistance

O=C1[O][Pt]2([NH][C@@H]3CCCC[C@H]3[NH]2)[O]C1=O [Oxaliplatin, [(1R, 2R)-1,2-cyclohexanediamine-N,N′] [oxalato (2-)-O,O′] platinum]
times more resistant than sensitive reference line HCT116/S (HCT116/R1): 30 times | oxaliplatin sensitivity (HCT116/Rev1): comparable to HCT116/S | times more resistant than line HCT116/S (HCT116/Rev2): 16 times | induction of apoptosis (annexine V) (HCT116R [1]): resist induction of apoptosis | induction of apoptosis (annexine V) (SW620R [2]): resist induction of apoptosis | activation of caspase 3 [3]: lack of activation of caspase 3 | Bax protein expression (Western blot) [4]: over-expresses it | Bax protein expression (Western blot) [5]: does not express the Bax protein | activation of Bax (Bax in HCT116/R1 cells [6]): reduced and delayed | activation of Bax (Bax in HCT116/Rev1 cells [7]): return to early activation of Bax | activation of Bak (Bak in HCT116/R1 cells): delayed | activation of Bak (Bak in HCT116/R2 cells): delayed | activation of Bak (Bak in HCT116/Rev1 cells): repeat the level of activation of Bak of the sensitive line HCT116/S | activation of Bak (Bak in HCT116/Rev2 cells): repeat the level of activation of Bak of the sensitive line HCT116/S | overall level of Bax expression (Bax in HCT116/R1 cells [8]): induces an over-expression of Bax | overall level of Bax expression (Bax in HCT116/Rev1 cells [9]): induces an over-expression of Bax | overall level of Bax expression (Bax in HCT116/S cells): induces an over-expression of Bax | relative resistance (IC50 resistant clone / IC50 parental clone) (HCT116): 1.0 | IC50 (HCT116; [12]): 0.32 ± 0.08 µM | relative resistance (IC50 resistant clone / IC50 parental clone) (HCT116/R): 68.4 | IC50 (HCT116/R; [13]): 21.9 ± 6.3 µM | relative resistance (IC50 resistant clone / IC50 parental clone) (SW620): 1.0 | IC50 (SW620; [14]): 3.4 ± 0.6 µM | relative resistance (IC50 resistant clone / IC50 parental clone) (SW620/R): 18.3 | times more resistant than the original line (SW620/R; SW620R versus SW620, as stated in text): 20 times | IC50 (SW620/R; [15]): 62.3 ± 12.9 µM

O=C(O)c1nn(Cc2ccc(Cl)cc2Cl)c2ccccc12 [lonidamine]
apoptotic induction (Mitocapture) (HCT116R [10]): resistant to apoptotic induction | apoptotic induction (Mitocapture) (SW620R [11]): resistant to apoptotic induction
